Experimental data reported in patent US20210038589A1, “USES, COMPOSITIONS AND METHODS” (priority 2018, published 2021).

Tested on: pyramidal cell action potentials in hippocampal area CA3
Assay: Concomitant LFP and single unit recordings: AP firing and spike-phase coupling after Aβ
Type: cell-based, mouse
Conditions: inhibitor applied after the application of Aβ
Protocol: Having studied the synaptic effects of two T-type Ca^2+ channel inhibitors, we then proceeded to examine their ability to modulate the synchronization of hippocampal neuronal activity. We performed concomitant recordings of field potentials and single unit recordings to analyze the synchronization of action potentials with the phase of the gamma oscillations (27). […] To determine the spike phase of PC during a gamma oscillation, spike-phase coupling was calculated. […] This is observed as a slight shift to the right in the AP-phase distribution (7A,D). The desynchronization of PC activity is also evidenced by the reduction of the summation vector length (Pmzd: control: 0.3764±0.048, Aβ: 0.226±0.05, n=7, p=0.0078, FIG. 7B; Penfl: control: 0.3976±0.054, Aβ: 0.2661±0.05566, n=8, p=0.0078, FIG. 7E), which is represented by the change in the length of the arrow in FIGS. 7A and D.
Patch-clamp (whole-cell) recordings were performed from visually identified CA3 PC using The SliceScope (Scientifica, UK). Action Potentials (APs) were recorded from pyramidal cells in area CA3 as single units (submerged chamber) using standard ACSF-containing patch electrodes. For EPSC recordings (Vh=−70 mV) a potassium-based intracellular solution was used (in mM): 122.5 K-gluconate, 17.5 KCl, 4 ATPNa, 0.4 GTPNa, 10 HEPES, 0.2 EGTA, 2 MgCl, set to pH 7.2-7.3 with KOH, osmolarity 270-280 mOsm. For IPSC recordings (Vh=0 mV) a cesium-based intracellular solution was used (in mM): 140 CsMeSO4, 10 HEPES, 0.2 EGTA, 4 MGCl, 2 ATPNa, 0.2 GTPNa, 5 QX-314, set to pH 7.2-7.4 with CsOH, osmolarity 270-280 mOsm.
Spike phase-coupling analysis was performed on concomitant LFP recordings and single unit recordings using MATLAB custom-written routines in order to relate the PC spiking activity to ongoing gamma oscillations (48). To do this LFP recordings were pre-processed using a band pass filter set to 20-60 Hz (highpass: RC-single pole, lowpass: RC-single pole) using Clampfit 10.7. AP were detected using an amplitude threshold and the instantaneous phase of gamma oscillation was calculated using a Hilbert transform in order to determine the phase-angle at which each action potential occurred during ongoing oscillations. Phase-angles and gamma oscillations-phases were represented in polar plots and expressed in radians with the peak of the oscillation cycle corresponding to 0π and the valley corresponding to ±π in the polar plots. In order to search for the synchronization level of AP firing, AP phase-angles frequency-distribution were normalized, a Gaussian function was fitted and the half-width at half-maximum was then calculated as a measure of the synchronization level: the more AP are fired on the same phase-angle the more synchronized the neuronal activity is. The preferred phase-angle was calculated by averaging the AP phase-angles distribution of all the experiments and is represented by an arrow in the polar-plots. To test whether neurons fired in a phase-related manner all concomitant recordings were tested for circular uniformity using Rayleigh's test. Only recording with p values below 0.05 were considered for the analysis.

SMILES | AP count (AP firing frequency) [Hz] | preferred phase angle [radians] | summation vector length
OC1(c2ccc(Cl)c(C(F)(F)F)c2)CCN(CCCC(c2ccc(F)cc2)c2ccc(F)cc2)CC1 [Penfluridol] | 1.79±0.43 | 4.09±0.2 | 0.355±0.05
O=c1[nH]c2ccccc2n1C1CCN(CCCC(c2ccc(F)cc2)c2ccc(F)cc2)CC1 [Pimozide] | 2.23±0.51 | 4.180±0.15 | 0.335±0.072
